Reference: article PMC4840416, “Constructing and Validating High-Performance MIEC-SVM Models in Virtual Screening for Kinases: A Better Way for Actives Discovery” (Scientific Reports, 2016)

Molecular target: T1, recombinant human ALK protein (Homo sapiens, UniProt Q9UM73)
T1 construct: purchased Life Technologies Inc. PV3867
Assay: LanthaScreen TR-FRET in vitro inhibitory activity assay of ALK
Assay type: biochemical
Details: for Averaged Enzymatic Inhibition @ 2ug/ml (%) / inhibition at 2 µg/mL: compound at 2ug/ml; for IC50: TR-FRET, 5 μM ATP, 1 hour at room temperature; for inhibition at 2 µg/mL: read-out: Averaged Enzymatic Inhibition @ 2ug/ml (%)
Description: All reagents and anhydrous solvents were obtained from commercial sources and used as received. The positive control inhibitors of ALK, crizotinib and ceritinib, were purchased from Bangshunda Technology and Selleck Chemicals, respectively. The compounds were dissolved in 100% dimethyl sulfoxide (DMSO) as a 10 mM stock solution. The final DMSO concentration in each reaction was less than 1%. Purified recombinant human ALK protein (Catalog number: PV3867) as well as reagents for TR-FRET assay, including Lantha Screen™ Tb-PY20 (Catalog number: PV3552), Fluorescein-Poly GT (Catalog number: PV3610), ATP (Catalog number: PV3227), Kinase Quench Buffer (Catalog number: P2832), Kinase Buffer (Catalog number: PV3189), and Antibody Dilution Buffer (Catalog number: PV3574), were all obtained from Life Technologies Inc.
Lantha Screen™ kinase assay based on TR-FRET technology was used to measure the inhibitory activity of the screened compounds. All the assays were carried out in 384-well plate format. The 4 × test compounds were firstly prepared before the enzyme reaction starts. The 4 × recombinant human ALK protein and 2 × Substrate/ATP mixture were separately prepared in 50 mM HEPES (pH = 7.5), 0.01% BRIJ-35, 10 mM MgCl2, 4 mM MnCl2, 1 mM EGTA, and 2 mM DTT. The final 10 μL kinase reaction consists of 5 μL 1 × Substrate/ATP mixture (0.2 μM substrate and 5 μM ATP), 2.5 μL ALK (5 ng/ml ALK protein), and 2.5 μL 1 × test compounds with desired concentration. The assay plate was shook on a plate shaker for 30 seconds to mix the reactions thoroughly. After 1 hour kinase reaction incubation at room temperature (20 ~ 25 °C), 10 μL of pre-prepared 20 mM EDTA and 4 nM Tb-labeled antibody solution was then added to terminate the kinase reactions and to initiate antibody binding, and the assay plate was incubated for another 1 hour at room temperature. Then, the assay plate was placed into a fluorescence plate reader (BioTek Synergy™ 4) to measure both fluoresce in and terbium emission signals (excitation: 340 nm; emission: 520 and 495 nm, respectively) with 100 μs delay time and 200 μs integration time. To determine the IC50 values, the resulted inhibitory activity calculated from TR-FRET emission ratio (i.e. fluoresce in emission intensity/terbium emission intensity) was plotted against the concentration of inhibitor, and the data was fitted to a dose-response curve with a variable slop.

T1 sequence (Q9UM73 1058-1620 limits assumed): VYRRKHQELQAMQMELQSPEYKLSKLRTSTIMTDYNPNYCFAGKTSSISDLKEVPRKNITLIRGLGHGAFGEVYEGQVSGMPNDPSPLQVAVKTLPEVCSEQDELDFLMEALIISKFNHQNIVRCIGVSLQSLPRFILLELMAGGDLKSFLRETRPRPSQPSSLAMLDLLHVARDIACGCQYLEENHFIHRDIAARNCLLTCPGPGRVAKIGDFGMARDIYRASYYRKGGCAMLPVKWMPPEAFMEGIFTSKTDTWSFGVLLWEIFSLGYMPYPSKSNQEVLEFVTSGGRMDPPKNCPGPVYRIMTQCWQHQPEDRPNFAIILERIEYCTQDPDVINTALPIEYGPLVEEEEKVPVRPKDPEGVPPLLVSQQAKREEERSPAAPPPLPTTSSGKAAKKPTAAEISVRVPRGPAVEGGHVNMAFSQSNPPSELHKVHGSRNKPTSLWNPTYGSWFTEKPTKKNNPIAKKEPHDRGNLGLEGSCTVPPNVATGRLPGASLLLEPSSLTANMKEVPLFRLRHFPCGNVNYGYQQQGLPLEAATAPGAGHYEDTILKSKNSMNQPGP

Structure (SMILES)	Averaged Enzymatic Inhibition @ 2ug/ml (%)	IC50	inhibition at 2 µg/mL
CC(C)c1ccc(-c2c(C#N)c(N)nc3sc(C(=O)Nc4ccc(Cl)cc4)c(N)c23)cc1 [AE-848/15116593]	-8.375%		
O=C(Nc1cccc(S(=O)(=O)N2CCN(C(=O)c3ccccc3)CC2)c1)C1CCCCC1 [AO-080/43378230]	-9.72%		
O=C1c2ccccc2-c2onc3c(Sc4ccccc4)cc(Sc4ccccc4)c1c23 [AG-690/40097114]	1.725%		
Cc1cccc2cc3c(nc12)N(C(=O)c1ccc(S(=O)(=O)N2CCCCC2)cc1)CC3 [Compound M8]	48.88%	11.5 µM	
N#Cc1c(N)nc2sc(C(=O)Nc3ccccc3)c(N)c2c1-c1cccs1 [AN-512/12594125]	10.48%		
c1ccc(CSc2nnc3c(n2)OC(c2c4ccccc4cc4ccccc24)Nc2ccccc2-3)cc1 (stereo not drawn) [AN-655/13300050]	23.865%		
COc1ccc(-n2c(-c3ccc(-c4ccccc4)cc3)nnc2-c2cccc3ccccc23)cc1 [AE-848/32007021]	5.085%		
CC1=C(C(=O)Nc2ccccc2)C(c2ccccc2)n2c(s/c(=C/C=C\c3ccccc3)c2=O)=N1 (stereo not drawn) [AG-690/37079179]	15.845%		
CC(NS(=O)(=O)c1cccc(Cl)c1)C(=O)Nc1cccc(-c2nc3ccccc3s2)c1 (stereo not drawn) [AQ-750/42209760]	13.425%		
CN1CCc2nc3sc(C(=O)c4ccc(-c5ccccc5)cc4)c(N)c3c(-c3cccs3)c2C1 [AM-807/14959628]	-12.705%		
Cc1cccc(N=c2sc(C3=c4cc(C)ccc4=NC3=O)c(O)n2-c2cccc(C)c2)c1 [AK-968/11780042]	-8.175%		
Cc1ccc(-c2cc(C(=O)N3CCN(C/C=C/c4ccccc4)CC3)c3ccccc3n2)cc1C [AK-968/11842315]	10.91%		
Cc1cc(C)c2oc(-c3cccc(NC(=O)COc4cc(Cl)c(Cl)cc4Cl)c3C)nc2c1 [AN-465/40934866]	2.22%		
CCCOc1ccc(-c2cc(C(=O)N3CCC(Cc4ccccc4)CC3)c3ccccc3n2)cc1 [AK-968/15360205]	-17.96%		
O=C(c1cccc(S(=O)(=O)NC2CCCCCC2)c1)c1cccc(S(=O)(=O)NC2CCCCCC2)c1 [AP-866/40876225]	9.84%		
CCOc1cc(/C=C2/SC(=O)N(Cc3c(F)cccc3Cl)C2=O)ccc1O [AM-879/41780072]	12.385%		
Nc1cc(NC(=O)c2cn(-c3ccccc3)nc2-c2ccccc2)cc(Oc2ccccc2)c1 [AG-205/33688061]	14.9%		
Cc1ccc(N2C(=O)C(=Cc3ccc(C)s3)C(=O)N(c3ccc(C)cc3C)C2=S)c(C)c1 [Compound M3]		0.515 µM	91.5%
O=C1c2cccc3cccc(c23)C(=O)N1CC1CCN(S(=O)(=O)/C=C/c2ccccc2)CC1 [AF-399/14864072]	-20.25%		
Cc1ccc(NC(=O)c2ccc(-c3ccccc3)cc2)c(OC(=O)c2ccc(-c3ccccc3)cc2)c1 [AG-690/09396003]	3.685%		
O=C(Nc1ccccc1)c1c(-c2ccccc2)c(C(=O)c2ccc([N+](=O)[O-])cc2)n2ccccc12 [AI-204/31728031]	3.565%		
COc1cc(/C=N/n2c(-c3ccccc3)n[nH]c2=S)cc(OC)c1O [AG-205/36915079]	18.19%		
O=C(COC(=O)c1c(-c2ccccc2)c(-c2ccccc2)nc2ccccc12)c1ccccc1 [AK-918/15391011]	-13.24%		
Cc1ccc(-c2nc(N3CC4(C)CC3CC(C)(C)C4)c3ccccc3n2)cc1 (stereo not drawn) [AE-641/40974923]	13.995%		
CCc1ccc(-n2c(CSc3nnnn3-c3ccccc3)nc3ccccc3c2=O)cc1 [AG-205/37086057]	40.815%		
Cc1ccc(C2C(C(=O)c3cc4ccccc4o3)=C(O)C(=O)N2c2nc3c(C)cc(C)cc3s2)cc1 (stereo not drawn) [AF-399/42017504]	-5.97%		
COc1ccc(-c2cc(C(=O)Nc3ccccc3-c3ccccc3)c3ccccc3n2)cc1 [AG-690/40749597]	2.49%		

Structure (SMILES)	Averaged Enzymatic Inhibition @ 2ug/ml (%)	IC50	inhibition at 2 µg/mL
Cc1ccc(NC(=O)c2sc3nc(N)c(C#N)c(-c4ccc(C(C)C)cc4)c3c2N)cc1Cl [AE-848/15116611]	10.08%		
N#Cc1c(N)nc2sc(C(=O)Nc3ccc(Cl)cc3)c(N)c2c1-c1cccs1 [AN-848/43256373]	-5%		
Cc1cc(C)c2c(c1)c(-c1ccccc1)c(-c1ccccc1)n2CC(O)CNc1ccc(C(C)C)cc1 (stereo not drawn) [AF-399/15128126]	32.1%		
c1ccc(-c2cc(-c3c(-c4ccccc4)cn4c3sc3ccccc34)c(-c3ccccc3)nn2)cc1 [AQ-344/43100304]	-14.115%		
OC(CNCCc1ccccc1)Cn1c(-c2ccccc2)c(-c2ccccc2)c2ccc3ccccc3c21 (stereo not drawn) [AF-399/15128092]	-33.405%		
Cc1onc(-c2ccccc2)c1C(=O)Nc1cccc2c1C(=O)c1ccccc1C2=O [AK-968/13025057]	30.35%		
Cc1ccc(C)c(N2CCN(C3CC(=O)N(c4ccc(N5C(=O)CC(N6CCN(c7cc(C)ccc7C)CC6)C5=O)cc4)C3=O)CC2)c1 (stereo not drawn) [Compound A3]		1.54 µM	65.8%
Cc1ccc(S(=O)(=O)N(Cc2n[nH]c(=S)n2-c2ccccc2)c2cccc(Cl)c2)cc1 [AG-690/40751357]	8.965%		
CCC(Oc1ccc2ccccc2c1Br)C(=O)NNC(=O)c1cc2cc(Br)ccc2oc1=O (stereo not drawn) [AK-968/37077046]	3.24%		
O=C1/C(=C/c2ccc(-c3cccc(Cl)c3)o2)CCC/C1=C\c1ccc(-c2cccc(Cl)c2)o1 [AA-504/07472022]	40.455%		
Cc1c(C=C2C(=O)N(C)C(=S)N(C)C2=O)c2ccccc2n1Cc1ccccc1 [Compound M9]	37.24%	18.2 µM	
Cc1cc(C)c2c(c1)c(-c1ccccc1)c(-c1ccccc1)n2CC(O)CNCc1ccccc1 (stereo not drawn) [AF-399/15128108]	-21.105%		
Cc1ccccc1NC(=O)c1sc2nc(N)c(C#N)c(-c3ccc(C(C)C)cc3)c2c1N [AE-848/15116597]	8.9%		
Cc1ccc(C(=O)COC(=O)c2ccc3nc4c5ccccc5c5ccccc5c4nc3c2)cc1C [AK-918/13399094]	8.005%		
Cc1cccn2c(=O)c3cc(C(=O)NC(C)c4ccccc4)c(=N)n(CCc4ccccc4)c3nc12 (stereo not drawn) [AS-871/41399397]	-8.995%		
Cc1nc(Nc2nc(CSc3nnnn3-c3ccccc3)cc(=O)[nH]2)nc2ccccc12 [AJ-292/42284747]	1.31%		
Cc1ccccc1NC(=O)c1cc2ccccc2c(C=Nc2ccccc2Cl)c1O [AG-664/32341038]	6.53%		
CCOC(=O)c1c(/N=C(/Nc2ccccc2-c2ccccc2)c2ccccc2)sc2c1CCCC2 [AG-690/40750112]	16.665%		
CC(C)(C)c1ccc(Oc2cc(Nc3ccccc3)c3c4c(onc24)-c2ccccc2C3=O)cc1 [AG-690/40097127]	11.435%		
O=C(Cn1cc(/C=C2\SC(=NC3CCCC3)N(C3CCCC3)C2=O)c2ccccc21)N1CCOCC1 [AO-081/15386972]	-1.4%		
COc1ccc(Cl)cc1C(=O)NCCNc1ccc(-n2nc(C)cc2C)nn1 [AQ-432/43400100]	-6.36%		
CCCCC1CCC(c2nc3c4c(c(Nc5cccc(C)c5)ccc4n2)C(=O)c2ccccc2-3)CC1 (stereo not drawn) [AH-034/08463011]	1.2%		
O=C1OC(c2ccccc2Cl)=N/C1=C\c1ccc(OCc2ccccc2)cc1OCc1ccccc1 [AK-968/37055166]	-8.735%		
Cc1cc(C)c2c(c1)c(-c1ccccc1)c(-c1ccccc1)n2CC(O)CN1CCC(C)CC1 (stereo not drawn) [AF-399/15128132]	-9.645%		
c1ccc2c(c1)Oc1ccccc1C2=C1c2ccccc2Oc2ccccc21 [AG-690/36541063]	11.335%		
Cc1ccc(C(=O)CC2(O)C(=O)N(CCc3ccccc3)c3ccccc32)cc1 (stereo not drawn) [AK-778/40897568]	18.54%		
